Laboratory results taken from ChEMBL document CHEMBL1149774, “Synthesis of N-(5,7-diamino-3-phenyl-quinoxalin-2-yl)-3,4,5-substituted anilines and N-[4[(5,7-diamino-3-phenylquinoxalin-2-yl)amino]benzoyl]-l-glutamic acid diethyl ester: evaluation of in vitro anti-cancer and anti-folate activities” (Eur J Med Chem, 2008).

Legend:
Assay type in all cases: functional
SK-MEL-28 = assay: Growth inhibition of human SK-MEL-28 cells after 48 hrs by SRB staining method; details: SK-MEL-28, 48 h
EKVX = assay: Growth inhibition of human EKVX cells after 48 hrs by SRB staining method
OVCAR-5 = assay: Growth inhibition of human OVCAR5 cells after 48 hrs by SRB staining method; details: OVCAR-5, 48 h
HCT-15 = assay: Growth inhibition of human HCT15 cells after 48 hrs by SRB staining method; details: HCT-15, 48 h
NCI-H522 = assay: Growth inhibition of human NCI-H522 cells after 48 hrs by SRB staining method; details: NCI-H522, 48 h
HL-60 = assay: Growth inhibition of human HL60 cells after 48 hrs by SRB staining method; details: HL-60, 48 h
Malme-3M = assay: Growth inhibition of human MALME-3M cells after 48 hrs by SRB staining method
MCF7 = assay: Growth inhibition of human MCF7 cells after 48 hrs by SRB staining method; details: MCF7, 48 h
NCI-H226 = assay: Growth inhibition of human NCI-H226 cells after 48 hrs by SRB staining method; details: NCI-H226, 48 h
SW-620 = assay: Growth inhibition of human SW620 cells after 48 hrs by SRB staining method; details: SW-620, 48 h
T47D = assay: Growth inhibition of human T47D cells after 48 hrs by SRB staining method
786-0 = assay: Growth inhibition of human 786-0 cells after 48 hrs by SRB staining method; details: 786-0, 48 h
SK-OV-3 = assay: Growth inhibition of human SKOV3 cells after 48 hrs by SRB staining method; details: SK-OV-3, 48 h
HOP-62 = assay: Growth inhibition of human HOP62 cells after 48 hrs by SRB staining method; details: HOP-62, 48 h
MDA-MB-435 = assay: Growth inhibition of human MDA-MB-435 cells after 48 hrs by SRB staining method; details: MDA-MB-435, 48 h
COLO 205 = assay: Growth inhibition of human COLO205 cells after 48 hrs by SRB staining method; details: COLO 205, 48 h
SK-MEL-5 = assay: Growth inhibition of human SK-MEL-5 cells after 48 hrs by SRB staining method; details: SK-MEL-5, 48 h
NCI-H460 = assay: Growth inhibition of human NCI-H460 cells after 48 hrs by SRB staining method; details: NCI-H460, 48 h
U-251 = assay: Growth inhibition of human U251 cells after 48 hrs by SRB staining method; details: U-251, 48 h
UO-31 = assay: Growth inhibition of human UO31 cells after 48 hrs by SRB staining method; details: UO-31, 48 h
RXF 393 = assay: Growth inhibition of human RXF393 cells after 48 hrs by SRB staining method; details: RXF 393, 48 h
M14 = assay: Growth inhibition of human M14 cells after 48 hrs by SRB staining method; details: M14, 48 h
TK-10 = assay: Growth inhibition of human TK10 cells after 48 hrs by SRB staining method; details: TK-10, 48 h
OVCAR-4 = assay: Growth inhibition of human OVCAR4 cells after 48 hrs by SRB staining method; details: OVCAR-4, 48 h
SF-295 = assay: Growth inhibition of human SF295 cells after 48 hrs by SRB staining method; details: SF-295, 48 h
DU-145 = assay: Growth inhibition of human DU145 cells after 48 hrs by SRB staining method; details: DU-145, 48 h
CAKI-1 = assay: Growth inhibition of human CAKI1 cells after 48 hrs by SRB staining method; details: CAKI-1, 48 h
HCT-116 = assay: Growth inhibition of human HCT116 cells after 48 hrs by SRB staining method; details: HCT-116, 48 h
UACC-257 = assay: Growth inhibition of human UACC257 cells after 48 hrs by SRB staining method; details: UACC-257, 48 h
OVCAR-3 = assay: Growth inhibition of human OVCAR-3 cells after 48 hrs by SRB staining method; details: OVCAR-3, 48 h
NCI-H322M = assay: Growth inhibition of human NCI-H322M cells after 48 hrs by SRB staining method
[1] = read-out: pLC50 (the source's name) (converted)

`CCOC(=O)CCC(NC(=O)c1ccc(Nc2nc3cc(N)cc(N)c3nc2-c2ccccc2)cc1)C(=O)OCC` (configuration not stated) showed a GI50 (SK-MEL-28) of 1.51 µM, a CC50 (SK-MEL-28; [1]) of 5.89 µM and a TGI (SK-MEL-28; read-out: pTGI (converted)) of 3.02 µM. For the same molecule, the GI50 (EKVX) was 28.8 µM, the CC50 (EKVX; [1]) was over 100 µM and the TGI (EKVX; read-out: pTGI (converted)) was over 100 µM. The GI50 (OVCAR-5) was 34.7 µM, the LC50 (OVCAR-5) was over 100 µM and the TGI (OVCAR-5; read-out: pTGI (converted)) was 87.1 µM. For the same molecule, the GI50 (HCT-15) was 23.4 µM, the LC50 (HCT-15) was over 100 µM and the TGI (HCT-15; read-out: pTGI (converted)) was over 100 µM. The GI50 (NCI-H522) was 27.5 µM, the LC50 (NCI-H522) was over 100 µM and the TGI (NCI-H522; read-out: pTGI (converted)) was over 100 µM. The GI50 (HL-60) was 9.55 µM, the CC50 (HL-60; [1]) was over 100 µM and the TGI (HL-60; read-out: pTGI (converted)) was 51.3 µM. For the same molecule, the GI50 (Malme-3M) was 2.82 µM, the LC50 (Malme-3M) was over 100 µM and the TGI (Malme-3M; read-out: pTGI (converted)) was 6.17 µM. For the same molecule, the GI50 (MCF7) was 29.5 µM, the CC50 (MCF7; [1]) was over 100 µM and the TGI (MCF7; read-out: pTGI (converted)) was over 100 µM. The GI50 (NCI-H226) was 26.9 µM, the LC50 (NCI-H226) was over 100 µM and the TGI (NCI-H226; read-out: pTGI (converted)) was 55 µM. It also gave a GI50 (SW-620) of 40.7 µM, a CC50 (SW-620; [1]) of over 100 µM and a TGI (SW-620; read-out: pTGI (converted)) of over 100 µM. It also gave a GI50 (T47D) of 1.66 µM, a CC50 (T47D; [1]) of over 100 µM and a TGI (T47D; read-out: pTGI (converted)) of 4.9 µM. It also gave a GI50 (786-0) of 17.8 µM, a CC50 (786-0; [1]) of 77.6 µM and a TGI (786-0; read-out: pTGI (converted)) of 37.2 µM. It also gave a GI50 (SK-OV-3) of 21.9 µM, a CC50 (SK-OV-3; [1]) of over 100 µM and a TGI (SK-OV-3; read-out: pTGI (converted)) of 47.9 µM. For the same molecule, the GI50 (HOP-62) was 19.5 µM, the LC50 (HOP-62) was 81.3 µM and the TGI (HOP-62; read-out: pTGI (converted)) was 39.8 µM. For the same molecule, the GI50 (MDA-MB-435) was 12 µM, the CC50 (MDA-MB-435; [1]) was over 100 µM and the TGI (MDA-MB-435; read-out: pTGI (converted)) was 36.3 µM. The GI50 (COLO 205) was 8.91 µM, the LC50 (COLO 205) was over 100 µM and the TGI (COLO 205; read-out: pTGI (converted)) was over 100 µM. For the same molecule, the GI50 (SK-MEL-5) was 6.61 µM, the LC50 (SK-MEL-5) was over 100 µM and the TGI (SK-MEL-5; read-out: pTGI (converted)) was 31.6 µM. The GI50 (NCI-H460) was 8.51 µM, the LC50 (concentration killing 50% of cells) (NCI-H460) was over 100 µM and the TGI (NCI-H460; read-out: pTGI (converted)) was 47.9 µM. The GI50 (U-251) was 20 µM, the LC50 (50% lethal concentration) (U-251) was 95.5 µM and the TGI (U-251; read-out: pTGI (converted)) was 43.7 µM. It also gave a GI50 (UO-31) of 21.9 µM, a CC50 (UO-31; [1]) of over 100 µM and a TGI (UO-31; read-out: pTGI (converted)) of 75.9 µM. For the same molecule, the GI50 (RXF 393) was 24.5 µM, the TGI (RXF 393; read-out: pTGI (converted)) was 85.1 µM and the GI50 (M14) was 2.51 µM. The LC50 (M14) was 75.9 µM, the TGI (M14; read-out: pTGI (converted)) was 5.89 µM and the GI50 (TK-10) was 33.1 µM. It also gave a CC50 (TK-10; [1]) of over 100 µM, a TGI (TK-10; read-out: pTGI (converted)) of 75.9 µM and a GI50 (OVCAR-4) of 26.9 µM. For the same molecule, the LC50 (OVCAR-4) was over 100 µM, the TGI (OVCAR-4; read-out: pTGI (converted)) was over 100 µM and the GI50 (SF-295) was 17.8 µM. For the same molecule, the LC50 (SF-295) was over 100 µM, the TGI (SF-295; read-out: pTGI (converted)) was 43.7 µM and the GI50 (DU-145) was 44.7 µM. It also gave a CC50 (DU-145; [1]) of over 100 µM, a TGI (DU-145; read-out: pTGI (converted)) of over 100 µM and a GI50 (CAKI-1) of 27.5 µM. The CC50 (CAKI-1; [1]) was over 100 µM, the TGI (CAKI-1; read-out: pTGI (converted)) was over 100 µM and the GI50 (HCT-116) was 15.1 µM. For the same molecule, the LC50 (HCT-116) was over 100 µM, the TGI (HCT-116; read-out: pTGI (converted)) was 51.3 µM and the GI50 (UACC-257) was 2 µM. For the same molecule, the LC50 (UACC-257) was over 100 µM, the TGI (UACC-257; read-out: pTGI (converted)) was 4.9 µM and the GI50 (OVCAR-3) was 8.51 µM. It also gave an LC50 (OVCAR-3) of over 100 µM, a TGI (OVCAR-3; read-out: pTGI (converted)) of 31.6 µM and a GI50 (NCI-H322M) of 41.7 µM. The LC50 (NCI-H322M) was over 100 µM and the TGI (NCI-H322M; read-out: pTGI (converted)) was over 100 µM.
